Laboratory results reported in article PMC8041284, “Tunable Methacrylamides for Covalent Ligand Directed Release Chemistry” (Journal of the American Chemical Society, 2021).
Where two headings read alike, the source gives them in different places.

Molecular target: BTK (Homo sapiens, UniProt Q06187)
Experiment: biochemical
[1] = read-out: BTK inhibition (%), 0.75 uM BTK, […] probe 3l, 15 min preincubation

Sequence of BTK (Q06187 402-655 limits assumed): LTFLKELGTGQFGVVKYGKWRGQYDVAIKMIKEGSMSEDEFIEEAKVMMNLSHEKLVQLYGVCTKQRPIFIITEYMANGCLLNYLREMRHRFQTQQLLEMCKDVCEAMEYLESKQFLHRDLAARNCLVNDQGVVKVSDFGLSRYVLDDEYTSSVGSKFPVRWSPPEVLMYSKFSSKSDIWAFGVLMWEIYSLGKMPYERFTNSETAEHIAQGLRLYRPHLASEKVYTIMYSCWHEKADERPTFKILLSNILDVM

Row | SMILES | inhibition at 10 µM [1] | inhibition at 10 µM (read-out: BTK inhibition (%))
1 | OCc1cc(C(O)CNCCCCCCOCCCCc2ccccc2)ccc1O (centres unmarked) [PCM-0065569] | -12.4% | –
2 | CN1CCC(=C2c3ccccc3CC(=O)c3sccc32)CC1 [PCM-0065580] | 10.3% | –
3 | COc1ccc2[nH]cc(CCNC(C)=O)c2c1 [PCM-0065583] | 11.7% | –
4 | CN(C)C(=O)C(CCN1CCC(O)(c2ccc(Cl)cc2)CC1)(c1ccccc1)c1ccccc1 [PCM-0065584] | 18.7% | –
5 | Cc1c(OCC(F)(F)F)ccnc1C[S+]([O-])c1nc2ccccc2[nH]1 (centres unmarked) [PCM-0065586] | -3.9% | –
6 | O=c1cc(N2CCOCC2)oc2c(-c3ccccc3)cccc12 [PCM-0065588] | -22.1% | –
7 | CCC1(c2ccccc2)C(=O)NCNC1=O [PCM-0065590] | -17.1% | –
8 | CCCN(CCC)CCc1cccc2c1CC(=O)N2 [PCM-0065591] | -18.7% | –
9 | CCCCCN(C)CCC(O)(P(=O)(O)O)P(=O)(O)O [PCM-0065595] | -0.9% | –
10 | O=C1Cc2cc(CCN3CCN(c4nsc5ccccc45)CC3)c(Cl)cc2N1 [PCM-0065598] | 52.1% | –
11 | CC(O)(CS(=O)(=O)c1ccc(F)cc1)C(=O)Nc1ccc(C#N)c(C(F)(F)F)c1 (centres unmarked) [PCM-0065600] | 11.7% | –
12 | COc1cccc(-c2cc(=O)c3ccccc3o2)c1N [PCM-0065604] | 4.8% | –
13 | C[n+]1cc2c3c(ccc2c2ccc4cc5c(cc4c21)OCO5)OCO3 [PCM-0065605] | 75.7% | –
14 | CC(C)NCC(O)c1ccc(O)c(O)c1 (centres unmarked) [PCM-0065609] | 7% | –
15 | CC(=O)OCC(CCn1cnc2cnc(N)nc21)COC(C)=O [PCM-0065613] | -20.2% | –
16 | Cc1cccc(-c2[nH]c(C(C)(C)C)nc2-c2ccc3nccnc3c2)n1 [PCM-0065614] | 25.5% | –
17 | NC(=O)c1cn(Cc2c(F)cccc2F)nn1 [PCM-0065619] | -17.9% | –
18 | O=C(O)c1nn(Cc2ccc(Cl)cc2Cl)c2ccccc12 [PCM-0065622] | 11% | –
19 | O=C(Nc1ccccc1)c1cc([N+](=O)[O-])ccc1Cl [PCM-0065623] | 0.8% | –
20 | Oc1ccc(/C=C/c2cc(O)cc(O)c2)cc1 [PCM-0065629] | 23.3% | –
21 | Clc1ccc2nsnc2c1NC1=NCCN1 [PCM-0065635] | 14.8% | –
22 | C[C@H](N[C@@H](CCc1ccccc1)C(=O)O)C(=O)N1CCC[C@H]1C(=O)O [PCM-0065638] | 3.1% | –
23 | Nc1nc2n[nH]nc2c(=O)[nH]1 [PCM-0085758] | 4.7% | –
24 | Cc1ncc([N+](=O)[O-])n1CCO [PCM-0085759] | -5.4% | –
25 | CN(C)C(=N)N=C(N)N [PCM-0085761] | 21.8% | –
26 | N=C(N=C(N)N)N1CCOCC1 [PCM-0085762] | -3.1% | –
27 | COc1ccc(CC2c3cc(OC)c(OC)cc3CC[N+]2(C)CCC(=O)OCCCCCOC(=O)CC[N+]2(C)CCc3cc(OC)c(OC)cc3C2Cc2ccc(OC)c(OC)c2)cc1OC (centres unmarked) [PCM-0085763] | -16.3% | –

Row | SMILES | inhibition at 10 µM [1] | inhibition at 10 µM (read-out: BTK inhibition (%))
28 | CCCc1ncc(C[n+]2ccccc2C)c(N)n1 [PCM-0085765] | -8.5% | –
29 | CS(=O)(=O)OCCCCOS(C)(=O)=O [PCM-0085767] | -1.4% | –
30 | NNC(=O)c1ccncc1 [PCM-0085769] | 2.3% | –
31 | Cc1c(-c2ccccc2)oc2c(C(=O)OCCN3CCCCC3)cccc2c1=O [PCM-0085770] | 12.8% | –
32 | CCCCOc1ccc(CC(=O)NO)cc1 [PCM-0085771] | 6.9% | –
33 | Cc1ncc([N+](=O)[O-])n1CC(O)CCl (centres unmarked) [PCM-0085772] | -3.9% | –
34 | NCc1ccc(S(N)(=O)=O)cc1 [PCM-0085773] | -28.8% | –
35 | CCCSc1ccc2nc(NC(=O)OC)[nH]c2c1 [PCM-0085774] | -10.1% | –
36 | OC(c1ccccc1)(c1ccccc1)C1CCNCC1 [PCM-0085781] | – | -14%
37 | Nc1ccc(S(=O)(=O)Nc2nccs2)cc1 [PCM-0085785] | 14.8% | –
38 | O=c1[nH]c(=O)n([C@H]2C[C@H](O)[C@@H](CO)O2)cc1I [PCM-0085786] | -27.2% | –
39 | C#C[C@]1(O)CC[C@H]2[C@@H]3CCC4=CC(=O)CC[C@@H]4[C@H]3CC[C@@]21C [PCM-0085792] | 3.1% | –
40 | CCN(CCCc1ccccc1)CCCc1ccccc1 [PCM-0085793] | -8.6% | –
41 | NC(N)=NC(N)=NCCc1ccccc1 [PCM-0085798] | 4.1% | –
42 | CS(=O)(=O)c1ccc([C@@H](O)[C@@H](CO)NC(=O)C(Cl)Cl)cc1 [PCM-0085804] | -8.6% | –
43 | O=C(NCCO[N+](=O)[O-])c1cccnc1 [PCM-0085806] | -5.4% | –
44 | Cc1cc(=O)n(-c2ccccc2)n1C [PCM-0085809] | 13.8% | –
45 | COc1ccccc1OCC(O)COC(N)=O (centres unmarked) [PCM-0085814] | 14.8% | –
46 | CCCCOc1ccc(C(=O)CCN2CCCCC2)cc1 [PCM-0085815] | -10.1% | –
47 | C[C@H]1[C@H](NC(=O)/C(=N\OC(C)(C)C(=O)O)c2csc(N)n2)C(=O)N1S(=O)(=O)O [PCM-0085816] | -15.6% | –
48 | CCC1=C[C@@H]2CN3CCc4c([nH]c5ccccc45)[C@@](C(=O)OC)(C2)[C@@H]13 [PCM-0085818] | 8.6% | –
49 | Cn1c(=O)c2c(ncn2CC(O)CO)n(C)c1=O (centres unmarked) [PCM-0085824] | 0.8% | –
50 | O=C1CC[C@@]2(O)[C@H]3Cc4ccc(O)c5c4[C@@]2(CCN3CC2CC2)[C@H]1O5 [PCM-0085829] | -24.1% | –
51 | CCc1nc(N)nc(N)c1-c1ccc(Cl)cc1 [PCM-0085830] | -13.2% | –
52 | C[C@]12C=CC(=O)C=C1CC[C@@H]1[C@@H]2[C@@H](O)C[C@@]2(C)[C@H]1CC[C@]2(O)C(=O)CO [PCM-0085835] | -7% | –
53 | C[C@H]1C[C@@H]2[C@H]([C@@H](O)C[C@@]3(C)[C@H]2CC[C@]3(O)C(=O)CO)[C@@]2(C)C=CC(=O)C=C12 [PCM-0085838] | 9% | –
54 | Clc1ccc(C(Cn2ccnc2)OCc2ccsc2Cl)c(Cl)c1 (centres unmarked) [PCM-0085844] | -41.2% | –

Row | SMILES | inhibition at 10 µM [1] | inhibition at 10 µM (read-out: BTK inhibition (%))
55 | c1ccc2c(CC3=NCCN3)cccc2c1 [PCM-0085846] | -13.2% | –
56 | Clc1ccccc1CN1CCc2sccc2C1 [PCM-0085848] | -2.6% | –
57 | Clc1ccc(C(Cn2ccnc2)OCc2c(Cl)cccc2Cl)c(Cl)c1 (centres unmarked) [PCM-0085849] | 38.9% | –
58 | CC(=O)OCC(=O)[C@@]1(O)[C@H](C)C[C@H]2[C@@H]3CCC4=CC(=O)C=C[C@]4(C)[C@@]3(F)[C@@H](O)C[C@@]21C [PCM-0085852] | 1.4% | –
59 | CC1CCc2cc(F)cc3c(=O)c(C(=O)O)cn1c23 (centres unmarked) [PCM-0085858] | -10.1% | –
60 | COC(=O)Nc1nc2ccc(Sc3ccccc3)cc2[nH]1 [PCM-0085863] | -7% | –
61 | OCCOCCN1CCN(C(c2ccccc2)c2ccc(Cl)cc2)CC1 (centres unmarked) [PCM-0085866] | 4.1% | –
62 | Cc1cccc(Nc2ccccc2C(=O)O)c1C [PCM-0085867] | 17.2% | –
63 | CN(C)[C@@H]1C(=O)C(C(N)=O)=C(O)[C@@]2(O)C(=O)C3=C(O)c4c(O)cccc4[C@@](C)(O)[C@H]3C[C@@H]12 [PCM-0085873] | 6.2% | –
64 | Cc1ccc(C)c(OCCCC(C)(C)C(=O)O)c1 [PCM-0085876] | -29.6% | –
65 | COc1ccc2c(c1)c(CC(=O)OCC(=O)O)c(C)n2C(=O)c1ccc(Cl)cc1 [PCM-0085879] | -19.3% | –
66 | CC1Cc2ccccc2N1NC(=O)c1ccc(Cl)c(S(N)(=O)=O)c1 (centres unmarked) [PCM-0085884] | 6.2% | –
67 | NC(=NCCCCCCN=C(N)/N=C(\N)Nc1ccc(Cl)cc1)/N=C(\N)Nc1ccc(Cl)cc1 [PCM-0085888] | 3.1% | –
68 | CCCC(=O)Nc1ccc(OCC(O)CNC(C)C)c(C(C)=O)c1 (centres unmarked) [PCM-0085895] | -12.5% | –
69 | CCn1cc(C(=O)O)c(=O)c2cc(F)c(N3CCNCC3)cc21 [PCM-0085898] | -12.8% | –
70 | NCCCC[C@H](N[C@@H](CCc1ccccc1)C(=O)O)C(=O)N1CCC[C@H]1C(=O)O [PCM-0085899] | 1.7% | –
71 | Clc1ccc(COC(Cn2ccnc2)c2ccc(Cl)cc2Cl)cc1 (centres unmarked) [PCM-0085902] | 7.8% | –
72 | CCCCN1CCCCC1C(=O)Nc1c(C)cccc1C (centres unmarked) [PCM-0085904] | -9.3% | –
73 | CCN(CC)Cc1cc(Nc2ccnc3cc(Cl)ccc23)ccc1O [PCM-0085909] | 8.3% | –
74 | Oc1c(Cl)cc(Cl)c2cccnc12 [PCM-0085913] | -0.8% | –
75 | CCN(CC)CCOC(=O)C(c1ccccc1)c1ccccc1 [PCM-0085916] | -7.8% | –
76 | C[N+]1(C)CCC(=C(c2ccccc2)c2ccccc2)CC1 [PCM-0085922] | 13.2% | –
77 | CN[C@@H]1[C@H](O[C@H]2[C@H](O[C@H]3[C@H](O)[C@@H](O)[C@H](N=C(N)N)[C@@H](O)[C@@H]3N=C(N)N)O[C@@H](C)[C@]2(O)CO)O[C@@H](CO)[C@H](O)[C@H]1O [PCM-0085923] | 9.4% | –
78 | CCOC(=O)[C@H](CCc1ccccc1)N[C@@H](C)C(=O)N1CCC[C@H]1C(=O)O [PCM-0085929] | 5.4% | –
79 | N[C@@H](Cc1cc(I)c(Oc2cc(I)c(O)c(I)c2)c(I)c1)C(=O)O [PCM-0085937] | 19.5% | –
80 | COC1=C(OC)C(=O)C(CCCCCCCCCCO)=C(C)C1=O [PCM-0085939] | -11% | –
